Results reported in ChEMBL document CHEMBL1817560, “Selectivity of kinase inhibitor fragments” (J Med Chem, 2011).

Experiments:
[1] = target: Phosphatidylinositol 4,5-bisphosphate 3-kinase catalytic subunit gamma isoform (Homo sapiens) (UniProt P48736); assay: Inhibition of PI3Kgamma expressed in Escherichia coli or baculovirus-infected insect cells at 667 uM by fluorescence polarization assay
[2] = target: Mitogen-activated protein kinase 8 (Homo sapiens, UniProt P45983); assay: Inhibition of JNK1 expressed in Escherichia coli or baculovirus-infected insect cells at 667 uM by TR-FRET assay
[3] = target: T1, Mitogen-activated protein kinase kinase kinase 5 (Homo sapiens) (UniProt Q99683); assay: Inhibition of ASK1 expressed in Escherichia coli or baculovirus-infected insect cells at 667 uM by IMAP assay
T1 sequence (whole entry): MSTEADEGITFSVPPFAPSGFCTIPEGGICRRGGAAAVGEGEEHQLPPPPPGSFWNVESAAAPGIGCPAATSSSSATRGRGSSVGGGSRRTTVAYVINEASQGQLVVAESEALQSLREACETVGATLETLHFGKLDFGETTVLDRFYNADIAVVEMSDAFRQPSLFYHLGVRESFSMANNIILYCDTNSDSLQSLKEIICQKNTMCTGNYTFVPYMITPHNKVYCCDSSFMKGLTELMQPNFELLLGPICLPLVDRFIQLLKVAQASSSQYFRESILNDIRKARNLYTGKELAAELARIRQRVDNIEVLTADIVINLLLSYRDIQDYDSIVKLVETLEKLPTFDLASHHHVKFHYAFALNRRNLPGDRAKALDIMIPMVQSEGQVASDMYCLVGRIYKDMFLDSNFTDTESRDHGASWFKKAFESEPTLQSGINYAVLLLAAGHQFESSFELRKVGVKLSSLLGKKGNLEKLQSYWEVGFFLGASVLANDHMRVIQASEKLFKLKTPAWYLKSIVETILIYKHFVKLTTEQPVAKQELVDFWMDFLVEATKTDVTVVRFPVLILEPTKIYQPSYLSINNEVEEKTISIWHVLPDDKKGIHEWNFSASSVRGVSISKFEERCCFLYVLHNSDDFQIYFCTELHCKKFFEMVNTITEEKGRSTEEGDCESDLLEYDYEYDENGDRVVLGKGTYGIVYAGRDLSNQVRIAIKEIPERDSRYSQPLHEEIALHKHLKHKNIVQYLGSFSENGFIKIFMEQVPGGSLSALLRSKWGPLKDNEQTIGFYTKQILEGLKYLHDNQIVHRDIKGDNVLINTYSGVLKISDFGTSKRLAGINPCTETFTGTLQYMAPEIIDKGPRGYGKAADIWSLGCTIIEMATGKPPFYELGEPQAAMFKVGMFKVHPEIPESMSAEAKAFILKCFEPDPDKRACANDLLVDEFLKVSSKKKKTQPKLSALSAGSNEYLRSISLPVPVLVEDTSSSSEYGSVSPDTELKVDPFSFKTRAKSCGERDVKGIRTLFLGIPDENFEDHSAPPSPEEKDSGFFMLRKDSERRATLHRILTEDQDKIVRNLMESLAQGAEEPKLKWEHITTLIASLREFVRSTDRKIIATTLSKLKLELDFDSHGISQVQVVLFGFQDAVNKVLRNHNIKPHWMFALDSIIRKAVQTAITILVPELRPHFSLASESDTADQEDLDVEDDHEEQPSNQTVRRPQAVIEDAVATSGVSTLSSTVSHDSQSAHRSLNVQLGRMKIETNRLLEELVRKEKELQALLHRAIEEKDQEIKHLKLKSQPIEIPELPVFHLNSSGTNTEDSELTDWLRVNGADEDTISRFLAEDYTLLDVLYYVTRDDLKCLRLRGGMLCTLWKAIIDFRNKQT

[4] = target: Serine/threonine-protein kinase B-raf (Homo sapiens) (UniProt P15056); assay: Inhibition of B-Raf expressed in Escherichia coli or baculovirus-infected insect cells using ATP as substrate at 400 uM by fluorescence polarization assay
[5] = target: Receptor tyrosine-protein kinase erbB-4 (Homo sapiens) (UniProt Q15303); assay: Inhibition of ErbB4 expressed in Escherichia coli or baculovirus-infected insect cells at 400 to 667 uM by TR-FRET assay
[6] = target: Insulin-like growth factor 1 receptor (Homo sapiens) (UniProt P08069); assay: Inhibition of IGF1R expressed in Escherichia coli or baculovirus-infected insect cells at 400 uM by TR-FRET assay
[7] = target: Serine/threonine-protein kinase PAK 1 (Homo sapiens) (UniProt Q13153); assay: Inhibition of PAK1 expressed in Escherichia coli or baculovirus-infected insect cells at 400 uM by IMAP assay
[8] = target: Phosphatidylinositol 4,5-bisphosphate 3-kinase catalytic subunit alpha isoform (Homo sapiens) (UniProt P42336); assay: Inhibition of PI3Kalpha expressed in Escherichia coli or baculovirus-infected insect cells using gamma-[33P]ATP at 400 uM by scintillation proximity assay
[9] = target: Serine/threonine-protein kinase pim-1 (Homo sapiens) (UniProt P11309); assay: Inhibition of PIM1 expressed in Escherichia coli or baculovirus-infected insect cells at 400 uM by IMAP assay
[10] = target: T2, Serine/threonine-protein kinase Sgk1 (Homo sapiens) (UniProt O00141); assay: Inhibition of SGK1 expressed in Escherichia coli or baculovirus-infected insect cells at 400 uM by IMAP assay
T2 sequence (whole entry): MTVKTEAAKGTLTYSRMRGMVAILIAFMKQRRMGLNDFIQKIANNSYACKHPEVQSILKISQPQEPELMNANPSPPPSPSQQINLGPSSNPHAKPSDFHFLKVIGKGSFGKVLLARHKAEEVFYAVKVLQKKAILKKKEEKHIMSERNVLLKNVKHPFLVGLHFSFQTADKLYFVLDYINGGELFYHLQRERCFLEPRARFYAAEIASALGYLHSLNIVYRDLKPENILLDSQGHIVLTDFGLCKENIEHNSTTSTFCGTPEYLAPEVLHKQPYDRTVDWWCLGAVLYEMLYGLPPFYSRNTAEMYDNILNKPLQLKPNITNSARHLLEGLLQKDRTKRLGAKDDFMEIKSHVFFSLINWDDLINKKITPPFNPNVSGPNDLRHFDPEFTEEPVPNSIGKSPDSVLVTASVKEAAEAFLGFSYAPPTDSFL

[11] = target: Tyrosine-protein kinase SYK (Homo sapiens, UniProt P43405); assay: Inhibition of SYK expressed in Escherichia coli or baculovirus-infected insect cells at 667 uM by TR-FRET assay
[12] = target: MAP kinase-activated protein kinase 2 (Homo sapiens) (UniProt P49137); assay: Inhibition of MK2 expressed in Escherichia coli or baculovirus-infected insect cells at 667 uM by IMAP assay

Serine/threonine-protein kinase B-raf (Homo sapiens), sequence (P15056 whole entry): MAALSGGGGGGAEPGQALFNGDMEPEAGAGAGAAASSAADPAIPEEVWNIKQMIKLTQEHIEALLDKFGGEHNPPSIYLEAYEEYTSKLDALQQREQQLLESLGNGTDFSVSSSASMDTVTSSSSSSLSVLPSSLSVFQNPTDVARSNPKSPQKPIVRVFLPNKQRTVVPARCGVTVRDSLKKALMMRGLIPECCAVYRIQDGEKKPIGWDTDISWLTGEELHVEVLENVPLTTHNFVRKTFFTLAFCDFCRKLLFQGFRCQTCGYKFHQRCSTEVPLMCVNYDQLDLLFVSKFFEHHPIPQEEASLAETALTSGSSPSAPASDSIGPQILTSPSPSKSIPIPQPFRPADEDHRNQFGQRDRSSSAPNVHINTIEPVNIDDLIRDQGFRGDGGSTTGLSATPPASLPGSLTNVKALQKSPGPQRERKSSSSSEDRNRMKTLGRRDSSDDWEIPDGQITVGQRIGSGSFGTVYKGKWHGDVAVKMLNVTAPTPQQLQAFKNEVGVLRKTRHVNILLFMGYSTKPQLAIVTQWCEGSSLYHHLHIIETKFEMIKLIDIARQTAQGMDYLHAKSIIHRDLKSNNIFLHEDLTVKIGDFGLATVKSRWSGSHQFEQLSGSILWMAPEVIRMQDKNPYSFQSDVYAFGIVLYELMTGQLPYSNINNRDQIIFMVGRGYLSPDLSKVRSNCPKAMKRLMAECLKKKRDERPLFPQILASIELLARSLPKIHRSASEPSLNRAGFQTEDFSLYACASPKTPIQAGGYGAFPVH
Serine/threonine-protein kinase pim-1 (Homo sapiens), sequence (P11309 whole entry, looked up): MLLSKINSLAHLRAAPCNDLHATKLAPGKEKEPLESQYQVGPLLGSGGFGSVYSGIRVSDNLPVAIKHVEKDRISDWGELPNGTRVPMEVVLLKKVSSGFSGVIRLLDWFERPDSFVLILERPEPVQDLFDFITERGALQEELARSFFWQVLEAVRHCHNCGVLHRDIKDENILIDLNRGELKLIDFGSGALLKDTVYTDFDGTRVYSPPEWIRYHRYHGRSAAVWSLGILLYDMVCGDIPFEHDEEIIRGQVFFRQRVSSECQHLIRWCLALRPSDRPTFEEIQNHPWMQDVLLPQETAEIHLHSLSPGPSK
Receptor tyrosine-protein kinase erbB-4 (Homo sapiens), sequence (Q15303 whole entry): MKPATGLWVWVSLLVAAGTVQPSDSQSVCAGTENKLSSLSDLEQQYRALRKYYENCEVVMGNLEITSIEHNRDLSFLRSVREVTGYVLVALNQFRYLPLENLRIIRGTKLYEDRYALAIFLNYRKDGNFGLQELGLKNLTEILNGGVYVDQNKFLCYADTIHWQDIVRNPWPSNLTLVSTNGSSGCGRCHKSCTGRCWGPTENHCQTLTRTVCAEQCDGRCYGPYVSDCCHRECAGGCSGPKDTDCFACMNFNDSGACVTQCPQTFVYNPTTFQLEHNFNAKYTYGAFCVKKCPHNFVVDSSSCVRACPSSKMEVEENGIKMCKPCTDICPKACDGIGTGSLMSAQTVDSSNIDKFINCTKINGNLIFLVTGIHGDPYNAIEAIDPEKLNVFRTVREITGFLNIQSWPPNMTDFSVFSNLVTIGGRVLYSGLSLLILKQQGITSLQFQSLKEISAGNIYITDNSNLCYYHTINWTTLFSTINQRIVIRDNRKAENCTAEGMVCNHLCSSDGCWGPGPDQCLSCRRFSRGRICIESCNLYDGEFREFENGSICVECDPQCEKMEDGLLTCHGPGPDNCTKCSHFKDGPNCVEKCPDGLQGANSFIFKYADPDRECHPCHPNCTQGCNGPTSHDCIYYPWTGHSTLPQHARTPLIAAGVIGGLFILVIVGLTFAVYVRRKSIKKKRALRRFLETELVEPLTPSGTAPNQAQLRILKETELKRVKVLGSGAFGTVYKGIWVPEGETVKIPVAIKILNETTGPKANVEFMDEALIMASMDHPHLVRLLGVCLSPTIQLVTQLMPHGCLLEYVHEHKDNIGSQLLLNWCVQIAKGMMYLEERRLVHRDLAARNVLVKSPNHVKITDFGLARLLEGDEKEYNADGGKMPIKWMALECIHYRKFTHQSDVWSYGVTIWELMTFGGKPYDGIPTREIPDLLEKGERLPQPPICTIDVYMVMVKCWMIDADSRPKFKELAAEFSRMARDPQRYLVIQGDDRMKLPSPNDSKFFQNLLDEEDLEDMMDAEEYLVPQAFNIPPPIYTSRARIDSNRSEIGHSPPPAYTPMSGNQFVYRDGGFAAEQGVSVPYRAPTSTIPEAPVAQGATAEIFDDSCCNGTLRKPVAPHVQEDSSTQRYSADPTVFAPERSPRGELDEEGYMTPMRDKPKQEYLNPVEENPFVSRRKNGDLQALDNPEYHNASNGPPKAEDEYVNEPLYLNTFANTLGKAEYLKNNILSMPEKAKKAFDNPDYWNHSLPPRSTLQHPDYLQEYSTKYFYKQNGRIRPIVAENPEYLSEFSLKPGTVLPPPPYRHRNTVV
Phosphatidylinositol 4,5-bisphosphate 3-kinase catalytic subunit alpha isoform (Homo sapiens), sequence (P42336 whole entry, canonical isoform): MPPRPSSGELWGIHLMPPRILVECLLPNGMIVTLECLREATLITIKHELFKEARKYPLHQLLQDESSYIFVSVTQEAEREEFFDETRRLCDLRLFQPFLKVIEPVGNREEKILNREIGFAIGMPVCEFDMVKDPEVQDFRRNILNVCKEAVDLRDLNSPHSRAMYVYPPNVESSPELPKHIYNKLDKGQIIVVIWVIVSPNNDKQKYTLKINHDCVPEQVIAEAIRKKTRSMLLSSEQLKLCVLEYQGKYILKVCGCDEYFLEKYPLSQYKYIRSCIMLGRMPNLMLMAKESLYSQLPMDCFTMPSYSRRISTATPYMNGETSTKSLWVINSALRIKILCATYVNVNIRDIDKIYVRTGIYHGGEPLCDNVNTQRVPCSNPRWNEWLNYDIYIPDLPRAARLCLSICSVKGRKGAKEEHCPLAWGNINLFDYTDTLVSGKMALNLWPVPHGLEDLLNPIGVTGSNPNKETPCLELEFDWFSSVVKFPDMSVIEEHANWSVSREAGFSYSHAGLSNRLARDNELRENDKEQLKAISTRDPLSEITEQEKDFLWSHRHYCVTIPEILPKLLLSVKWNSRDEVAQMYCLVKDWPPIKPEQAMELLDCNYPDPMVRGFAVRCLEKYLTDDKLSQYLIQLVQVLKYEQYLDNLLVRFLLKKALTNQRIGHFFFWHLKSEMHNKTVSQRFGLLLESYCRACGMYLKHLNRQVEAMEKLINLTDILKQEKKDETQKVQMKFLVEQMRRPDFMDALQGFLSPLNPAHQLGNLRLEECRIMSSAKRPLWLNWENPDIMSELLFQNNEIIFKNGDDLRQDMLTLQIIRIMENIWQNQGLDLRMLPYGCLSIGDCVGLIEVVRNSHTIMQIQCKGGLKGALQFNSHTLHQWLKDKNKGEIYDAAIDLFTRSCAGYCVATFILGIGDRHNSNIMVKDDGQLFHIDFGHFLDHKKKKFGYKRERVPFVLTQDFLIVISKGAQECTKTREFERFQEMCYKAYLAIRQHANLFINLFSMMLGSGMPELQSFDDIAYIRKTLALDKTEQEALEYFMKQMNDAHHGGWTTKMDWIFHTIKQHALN
Serine/threonine-protein kinase PAK 1 (Homo sapiens), sequence (Q13153 whole entry, canonical isoform): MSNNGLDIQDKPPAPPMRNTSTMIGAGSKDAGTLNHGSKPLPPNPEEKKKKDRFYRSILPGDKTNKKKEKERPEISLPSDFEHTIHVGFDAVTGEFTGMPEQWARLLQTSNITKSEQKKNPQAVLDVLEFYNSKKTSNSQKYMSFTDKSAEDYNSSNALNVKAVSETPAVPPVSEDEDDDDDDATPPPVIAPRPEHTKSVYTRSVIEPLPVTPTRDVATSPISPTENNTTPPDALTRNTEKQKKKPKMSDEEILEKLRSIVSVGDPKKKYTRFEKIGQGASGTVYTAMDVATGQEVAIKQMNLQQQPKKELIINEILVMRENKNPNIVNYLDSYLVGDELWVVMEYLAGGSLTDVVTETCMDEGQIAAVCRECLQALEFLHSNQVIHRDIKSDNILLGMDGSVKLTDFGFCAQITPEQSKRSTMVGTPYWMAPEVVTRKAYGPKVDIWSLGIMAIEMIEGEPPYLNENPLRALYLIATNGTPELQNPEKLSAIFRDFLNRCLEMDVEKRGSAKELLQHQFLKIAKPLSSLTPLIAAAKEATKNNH
Phosphatidylinositol 4,5-bisphosphate 3-kinase catalytic subunit gamma isoform (Homo sapiens), sequence (P48736 whole entry, looked up, canonical isoform): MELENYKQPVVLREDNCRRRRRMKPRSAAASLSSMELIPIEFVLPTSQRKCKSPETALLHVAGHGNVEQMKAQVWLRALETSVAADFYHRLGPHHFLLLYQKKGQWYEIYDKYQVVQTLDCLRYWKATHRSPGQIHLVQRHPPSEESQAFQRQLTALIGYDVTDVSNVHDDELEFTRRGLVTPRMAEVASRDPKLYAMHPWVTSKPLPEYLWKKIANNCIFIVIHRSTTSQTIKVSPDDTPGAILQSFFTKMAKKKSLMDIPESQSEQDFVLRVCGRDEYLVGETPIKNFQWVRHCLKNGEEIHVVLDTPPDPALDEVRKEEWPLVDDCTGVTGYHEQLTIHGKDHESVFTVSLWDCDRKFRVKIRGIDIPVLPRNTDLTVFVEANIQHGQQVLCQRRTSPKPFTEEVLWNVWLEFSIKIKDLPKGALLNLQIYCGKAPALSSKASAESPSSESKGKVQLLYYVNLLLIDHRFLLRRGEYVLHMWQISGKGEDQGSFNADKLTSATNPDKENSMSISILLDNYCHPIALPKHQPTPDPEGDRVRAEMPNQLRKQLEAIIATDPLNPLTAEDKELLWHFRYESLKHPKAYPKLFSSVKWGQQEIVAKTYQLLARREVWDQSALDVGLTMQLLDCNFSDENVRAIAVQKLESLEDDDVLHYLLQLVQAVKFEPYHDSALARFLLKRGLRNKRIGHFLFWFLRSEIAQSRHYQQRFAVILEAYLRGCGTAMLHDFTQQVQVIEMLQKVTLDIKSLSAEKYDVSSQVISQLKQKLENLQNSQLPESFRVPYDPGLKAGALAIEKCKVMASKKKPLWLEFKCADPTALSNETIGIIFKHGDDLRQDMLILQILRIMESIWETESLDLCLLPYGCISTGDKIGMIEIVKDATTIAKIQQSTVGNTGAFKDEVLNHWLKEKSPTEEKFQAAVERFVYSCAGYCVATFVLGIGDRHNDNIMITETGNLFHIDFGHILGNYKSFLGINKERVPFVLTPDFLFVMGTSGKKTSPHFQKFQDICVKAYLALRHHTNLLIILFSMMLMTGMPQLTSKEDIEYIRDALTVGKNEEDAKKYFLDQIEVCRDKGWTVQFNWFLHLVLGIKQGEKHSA

inhibition [1]	inhibition [2]	inhibition [3]	inhibition [4]	inhibition [5]	inhibition [6]	inhibition [7]	inhibition [8]	inhibition [9]	inhibition [10]	inhibition [11]	inhibition [12]	Compound
66%	33%	88%	–	9%	44%	–	45%	20%	76%	56%	80%	Nc1[nH]cnc2ncnc1-2
20%	20%	52%	–	13%	–	–	29%	21%	63%	36%	47%	Nc1n[nH]c2ncccc12
9%	0%	–	–	0%	6%	–	11%	12%	15%	87%	18%	O=C(Nc1ccccc1)Nc1ccccc1
7%	0%	0%	–	0%	1%	–	10%	10%	8%	0%	16%	O=C(Nc1ccccc1)Nc1cccc(C(F)(F)F)c1
10%	34%	80%	–	0%	47%	17%	22%	21%	97%	25%	54%	Nc1[nH]nc2ccccc12
9%	4%	3%	–	0%	0%	–	40%	19%	10%	20%	28%	CC(C)(C)c1cc(NC(=O)Nc2ccccc2)no1
16%	74%	10%	10%	15%	18%	19%	14%	6%	21%	94%	24%	c1ccc(Nc2ncccn2)cc1
2%	1%	2%	–	44%	0%	14%	20%	17%	3%	8%	7%	c1ccc(Nc2ccccc2)cc1
13%	13%	–	–	0%	15%	0%	24%	5%	27%	26%	24%	c1n[nH]c2c1CCCC2
70%	83%	77%	–	47%	92%	38%	86%	89%	90%	86%	28%	Nc1ccc2ncc(-c3ccccc3)n2n1
92%	14%	1%	–	0%	0%	0%	46%	39%	0%	15%	0%	c1ccc(-c2cnc3nccnn23)cc1
20%	15%	–	19%	5%	23%	–	16%	6%	62%	27%	–	c1cnc2[nH]ccc2c1
2%	2%	13%	–	0%	5%	–	27%	1%	7%	3%	24%	Cc1ccc(NC(=O)Nc2cc(C(C)(C)C)nn2-c2ccccc2)cc1
100%	18%	39%	100%	17%	20%	–	59%	54%	52%	51%	54%	Nc1ncccc1OCc1ccccc1
13%	16%	9%	–	0%	–	–	16%	58%	17%	6%	8%	Cc1ccc(C(=O)NC2CC2)cc1F
0%	0%	9%	–	0%	0%	–	4%	13%	8%	0%	13%	Cc1ccc(NC(=O)Nc2cccc(C(F)(F)F)c2)cc1

Compound	inhibition [1]	inhibition [2]	inhibition [3]	inhibition [4]	inhibition [5]	inhibition [6]	inhibition [7]	inhibition [8]	inhibition [9]	inhibition [10]	inhibition [11]	inhibition [12]
c1ccc2[nH]ncc2c1 [INDAZOLE]	0%	13%	31%	0%	5%	24%	12%	6%	22%	75%	21%	–
